In patent US9359298B2, “Cajanine structure analogous compound, preparation method and use” (INSTITUTE OF MEDICINAL BIOTECHNOLOGY, CHINESE ACADEMY OF …, priority 2011, dated 2016):
In brackets after ≈: the same amount, converted by molar mass. Where two headings read alike, the source gives them in different places.

What was measured:
Format in all cases: cell-based
Coxsackie virus B6 = assay: Coxsackie virus activity assay (CPE in Vero cells); conditions: Vero
HIV-1 III B virus = assay: Anti-HIV activity assay (P24 antigen in MT-4 cells); conditions: for IC50: Human immunodeficiency virus 1, MT4, 96 h, read-out: HIV IC50; for anti-HIV viral activity: statement in words
[1] = test system: Influenza A virus (hanfang359/95); assay: Determination of anti-influenza virus activity (CPE in MDCK cells); conditions: for IC50: Influenza A virus, MDCK, 36 h; for anti-influenza virus activities compared with the lead compound cajanine: statement in words
HCV = assay: Anti-hepatitis C virus (HCV) activity assay (HCV RNA in Huh7.5 cells); conditions: for EC50: Hepatitis C virus, Huh7.5, 72 h, read-out: HCV EC50; for anti-HCV viral activity: statement in words
Method: Inoculate Huh7.5 cells into 96-well plates to a density of 3×10^4 cells/cm^2, culture for 24h, infect the cells with 45 IU/cell HCV supernatant, meanwhile, add drug solutions or solvent control for treatment.

[2] = read-out: COX-B6 IC50, Vero cells, about 100TCID50, CPE, Reed-Muench
[3] = MT-4 cells, HIV-1 III B 100TCID50, 96 h, P24 antigen
[4] = Huh7.5 cells, 72 h, HCV RNA by RT-PCR, Reed-Muench

Row | SMILES | IC50 (Coxsackie virus B6; [2]) | IC50 (HIV-1 III B virus; [3]) | IC50 [1] | anti-influenza virus activities compared with the lead compound cajanine [1] | EC50 (HCV; [4]) | anti-HIV viral activity (HIV-1 III B virus) | anti-HCV viral activity (HCV) | IC50 (Coxsackie virus B6; read-out: COX-B6 IC50) | IC50 (HIV-1 III B virus) | EC50 (HCV)
1 | COc1cc(/C=C/c2ccccc2)cc(OC(C)=O)c1CC=C(C)C [Compound 24i] | 0.92 µg/mL (≈ 2.73 µM) | 2.09 µg/mL (≈ 6.21 µM) | 0.15 µg/mL (≈ 0.446 µM) | significantly stronger than the lead compound cajanine | 0.99 µg/mL (≈ 2.94 µM) | – | – | – | – | –
2 | COC(=O)c1c(/C=C/c2ccccc2)cc(OC)c(CC=C(C)C)c1OC(=O)c1cnc[nH]1 [Compound 24p] | 2.36 µg/mL (≈ 5.29 µM) | 0.31 µg/mL (≈ 0.694 µM) | 1.32 µg/mL (≈ 2.96 µM) | – | 0.77 µg/mL (≈ 1.72 µM) | – | – | – | – | –
3 | COC(=O)c1c(/C=C/c2ccccc2)cc(OC)c(CC=C(C)C)c1OC(C)=O [Compound 24g, methyl 2-acetoxy-3-isopentenyl-4-methoxy-6-[(E)-styryl]benzoate] | 1.65 µg/mL (≈ 4.18 µM) | 0.33 µg/mL (≈ 0.837 µM) | 0.25 µg/mL (≈ 0.634 µM) | significantly stronger than the lead compound cajanine | 0.83 µg/mL (≈ 2.1 µM) | – | – | – | – | –
4 | COc1cc(/C=C/c2ccccc2)cc(OC(=O)C(=O)O)c1CC=C(C)C [Compound 31c, 2-isopentenyl-3-carboxyformyloxy-5-[(E)-styryl]anisole] | 0.67 µg/mL (≈ 1.83 µM) | 0.29 µg/mL (≈ 0.791 µM) | 0.08 µg/mL (≈ 0.218 µM) | significantly stronger than the lead compound cajanine | 0.77 µg/mL (≈ 2.1 µM) | stronger anti-HIV, HCV viral activities | stronger anti-HIV, HCV viral activities | – | – | –
5 | COc1cc(/C=C/c2ccccc2)cc(OC(=O)CN)c1CC=C(C)C [Compound 24c, 2-isopentenyl-3-aminoacetoxy-5-[(E)styryl]anisole] | 0.98 µg/mL (≈ 2.79 µM) | 2.78 µg/mL (≈ 7.91 µM) | 1.24 µg/mL (≈ 3.53 µM) | – | 0.94 µg/mL (≈ 2.67 µM) | – | – | – | – | –
6 | COc1cc(/C=C/c2ccccc2)cc(OC(=O)CN(C)C)c1CC=C(C)C [Compound 24o, 2-isopentenyl-3-(N,N-dimethylacetoxy)-5-[(E)-styryl]anisole] | 1.21 µg/mL (≈ 3.19 µM) | 0.69 µg/mL (≈ 1.82 µM) | 2.31 µg/mL (≈ 6.09 µM) | – | 1.34 µg/mL (≈ 3.53 µM) | – | – | – | – | –
7 | COC(=O)c1c(/C=C/c2ccccc2)cc(OC)c(CC=C(C)C)c1OC(=O)CN(C)C [Compound 24m, 2-(N,N-dimethylacetyloxy)-3-isopentenyl-4-methoxy-6-[(E)-styryl]benzoate] | 3.46 µg/mL (≈ 7.91 µM) | 2.6 µg/mL (≈ 5.94 µM) | 6.52 µg/mL (≈ 14.9 µM) | – | 0.8 µg/mL (≈ 1.83 µM) | – | – | – | – | –
8 | COc1cc(/C=C/c2ccccc2)cc(OC(=O)C2CCCN2)c1CC=C(C)C (stereo not drawn) [Compound 24f] | 0.21 µg/mL (≈ 0.536 µM) | 1.01 µg/mL (≈ 2.58 µM) | 0.13 µg/mL (≈ 0.332 µM) | significantly stronger than the lead compound cajanine | 0.69 µg/mL (≈ 1.76 µM) | – | – | – | – | –
9 | COC(=O)c1c(/C=C/c2ccccc2)cc(OC)c(CC=C(C)C)c1OC(=O)C1CCCN1 (stereo not drawn) [Compound 24d] | 0.45 µg/mL (≈ 1 µM) | 0.81 µg/mL (≈ 1.8 µM) | 0.12 µg/mL (≈ 0.267 µM) | – | 0.87 µg/mL (≈ 1.94 µM) | – | – | – | – | –
10 | COc1cc(/C=C/c2ccccc2)cc(OCC2CNCCN2)c1CC=C(C)C (stereo not drawn) [Compound 26f, 2-isopentenyl-3-(piperazin-2-yl)methoxy-5-[(E)-styryl]anisole] | 0.98 µg/mL (≈ 2.5 µM) | 1.61 µg/mL (≈ 4.1 µM) | 0.68 µg/mL (≈ 1.73 µM) | significantly stronger than the lead compound cajanine | 1.39 µg/mL (≈ 3.54 µM) | – | – | – | – | –
11 | COC(=O)c1c(/C=C/c2ccccc2)cc(OC)c(CC=C(C)C)c1OC(=N)N [Compound 27a, 2-iso-ureido-3-isopentenyl-4-methoxy-6-[(E)-styryl]-benzoate] | 2.34 µg/mL (≈ 5.93 µM) | 2.48 µg/mL (≈ 6.29 µM) | 1.32 µg/mL (≈ 3.35 µM) | – | 1.34 µg/mL (≈ 3.4 µM) | – | – | – | – | –
12 | CCOC(=O)C1=C[C@@H](OC(CC)CC)[C@H](NC(C)=O)[C@@H](N)C1 [Oseltamivirphosphate, reference compound] | – | – | 0.22 µg/mL (≈ 0.704 µM) | – | – | – | – | – | – | –
13 | COC(=O)c1c(/C=C/c2ccccc2)cc(OC)c(CC=C(C)C)c1OC(=O)c1cccnc1 [Compound 24j, 2-(pyridyl-3-formylox)-3-isopentenyl-4-methoxy-6-[(E)-styryl]-benzoate] | 3.61 µg/mL (≈ 7.89 µM) | 2.65 µg/mL (≈ 5.79 µM) | 2.36 µg/mL (≈ 5.16 µM) | – | 1.35 µg/mL (≈ 2.95 µM) | – | – | – | – | –
14 | COc1cc(/C=C/c2ccccc2)cc(OC(=O)NN)c1CC=C(C)C [Compound 29c, 2-isopentenyl-3-hydrazinoformylox-5-[(E)-styryl]anisole] | – | – | 0.24 µg/mL (≈ 0.681 µM) | significantly stronger than the lead compound cajanine | – | – | – | 0.36 µg/mL (≈ 1.02 µM) | 0.6 µg/mL (≈ 1.7 µM) | 0.89 µg/mL (≈ 2.53 µM)
15 | COC(=O)c1c(/C=C/c2ccccc2)cc(OC)c(CC=C(C)C)c1OCC1CNCCN1 (stereo not drawn) [Compound 26d, methyl 2-(piperazin-2-yl)methoxy-3-isopentenyl-4-methoxy-6-[(E)-styryl]benzoate] | 2.75 µg/mL (≈ 6.1 µM) | – | 1.36 µg/mL (≈ 3.02 µM) | – | 1.53 µg/mL (≈ 3.4 µM) | – | – | – | 1.36 µg/mL (≈ 3.02 µM) | –
16 | COC(=O)c1c(/C=C/c2ccccc2)cc(OC)c(CC=C(C)C)c1OC(=O)C(=O)O [Compound 31a, methyl 2-carboxyformylxy-3-isopentenyl-4-methoxy-6-[(E)-styryl]benzoate] | 2.31 µg/mL (≈ 5.44 µM) | 1.3 µg/mL (≈ 3.06 µM) | 0.14 µg/mL (≈ 0.33 µM) | significantly stronger than the lead compound cajanine | 0.71 µg/mL (≈ 1.67 µM) | – | – | – | – | –
17 | COC(=O)c1c(/C=C/c2cc(OC)c(OC)c(OC)c2)cc(OC)c(CC=C(C)C)c1O [Compound 8u, methyl 2-hydroxy-3-isopentenyl-4-methoxy-6-[(E)-(3,4,5-trimethoxy-styryl)]benzoate] | 1.65 µg/mL (≈ 3.73 µM) | 1.49 µg/mL (≈ 3.37 µM) | 0.11 µg/mL (≈ 0.249 µM) | – | 0.67 µg/mL (≈ 1.51 µM) | stronger anti-HIV, HCV viral activities | stronger anti-HIV, HCV viral activities | – | – | –
18 | NC(=O)c1ncn([C@@H]2O[C@H](CO)[C@@H](O)[C@H]2O)n1 [RBV, Ribavirin, reference compound] | 412 µg/mL (≈ 1690 µM) | – | 0.59 µg/mL (≈ 2.42 µM) | – | – | – | – | – | – | –
19 | COc1cc(/C=C/c2ccccc2)cc(OC(=O)c2cnc[nH]2)c1CC=C(C)C [Compound 24r] | 0.68 µg/mL (≈ 1.75 µM) | 2.31 µg/mL (≈ 5.95 µM) | 0.98 µg/mL (≈ 2.52 µM) | – | 1.05 µg/mL (≈ 2.7 µM) | – | – | – | – | –
20 | COC(=O)c1c(/C=C/c2ccccn2)cc(OC)c(CC=C(C)C)c1O [Compound 8t, methyl 2-hydroxy-3-isopentenyl-4-methoxy-6-[(E)-2-(pyrid-2-yl)ethenyl]benzoate] | 1.32 µg/mL (≈ 3.73 µM) | 0.6 µg/mL (≈ 1.7 µM) | 0.12 µg/mL (≈ 0.34 µM) | – | 0.64 µg/mL (≈ 1.81 µM) | stronger anti-HIV, HCV viral activities | stronger anti-HIV, HCV viral activities | – | – | –
21 | COC(=O)c1c(/C=C/c2cc(OC)ccn2)cc(OC)c(CC=C(C)C)c1O [Compound 8v, methyl 2-hydroxy-3-isopentenyl-4-methoxy-6-[(E)-2-(4-methoxypyrid-2-yl)ethenyl]benzoate] | 2.68 µg/mL (≈ 6.99 µM) | 1.01 µg/mL (≈ 2.63 µM) | 0.87 µg/mL (≈ 2.27 µM) | – | 2.39 µg/mL (≈ 6.23 µM) | stronger anti-HIV, HCV viral activities | stronger anti-HIV, HCV viral activities | – | – | –
22 | COc1cc(/C=C/c2ccccc2)cc(OCN)c1CC=C(C)C [Compound 26c, 2-isopentenyl-3-aminomethoxy-5-[(E)-styryl]anisole] | 2.64 µg/mL (≈ 8.16 µM) | 3.18 µg/mL (≈ 9.83 µM) | 1.35 µg/mL (≈ 4.17 µM) | – | 2.07 µg/mL (≈ 6.4 µM) | – | – | – | – | –
23 | COc1cc(/C=C/c2ccccc2)cc(OC(=N)N)c1CC=C(C)C [Compound 27c, 2-isopentenyl-3-isoureido-5-[(E)-styryl]anisole] | 0.92 µg/mL (≈ 2.73 µM) | 2.03 µg/mL (≈ 6.03 µM) | 0.54 µg/mL (≈ 1.61 µM) | – | 1.26 µg/mL (≈ 3.75 µM) | – | – | – | – | –
24 | COC(=O)c1c(/C=C/c2ccccc2)cc(OC)c(CC=C(C)C)c1OC(=O)CN [Compound 24a] | 3.21 µg/mL (≈ 7.84 µM) | 1.79 µg/mL (≈ 4.37 µM) | 2.31 µg/mL (≈ 5.64 µM) | – | 0.98 µg/mL (≈ 2.39 µM) | – | – | – | – | –
25 | COC(=O)c1c(/C=C/c2ccccc2)cc(OC)c(CC=C(C)C)c1OCN [Compound 26a] | 6.54 µg/mL (≈ 17.1 µM) | 1.73 µg/mL (≈ 4.54 µM) | 2.31 µg/mL (≈ 6.06 µM) | – | 2.09 µg/mL (≈ 5.48 µM) | – | – | – | – | –
26 | COc1cc(/C=C/c2ccccc2)cc(OC(=O)c2cccnc2)c1CC=C(C)C [Compound 24l, 2-isopentenyl-3-(pyridyl-3-formyloxy)-5-[(E)-styryl]anisole] | 0.95 µg/mL (≈ 2.38 µM) | 1.4 µg/mL (≈ 3.5 µM) | 1.04 µg/mL (≈ 2.6 µM) | – | 1.6 µg/mL (≈ 4.01 µM) | – | – | – | – | –
27 | COC(=O)c1c(/C=C/c2ccccc2)cc(OC)c(CC=C(C)C)c1OC(=O)NN [Compound 29a, methyl 2-Hydrazinoformyloxy-3-isopentenyl-4-methoxy-6-[(E)-styryl]benzoate] | – | – | 0.98 µg/mL (≈ 2.39 µM) | – | – | stronger anti-HIV, HCV viral activities | stronger anti-HIV, HCV viral activities | 1.36 µg/mL (≈ 3.31 µM) | 0.43 µg/mL (≈ 1.05 µM) | 0.51 µg/mL (≈ 1.24 µM)
